Reference: US10766909B2, “Process for preparing halogenated pyridine derivatives” (Bayer CropScience Aktiengesellschaft, priority 2016, dated 2020)

Assay: log P by HPLC-MS
Type: physicochemical

chromatographic logP	SMILES
2.53	Fc1ccc(Cl)nc1I [Example 1, 6-chloro-3-fluoro-2-iodopyridine]
1.85	COC(=O)c1ccc(F)c(I)n1 [Example 2, methyl 5-fluoro-6-iodopyridine-2-carboxylate]
2.67	Fc1ccc(Br)nc1I [Example 3, 6-bromo-3-fluoro-2-iodopyridine]
